# Results as given in patent US10759785B2, “Compounds” (ENTERPRISE THERAPEUTICS LIMITED, priority 2016, dated 2020).
# Counter-ions that a name gives are not always drawn.
# Target: T1, ENaC (Homo sapiens, UniProt P37088+P51168+P51170)
# T1 construct: host or cells: primary human bronchial epithelial cells (HBECs) differentiated at an air-liquid interface
# T1 sequence (P37088 1-669): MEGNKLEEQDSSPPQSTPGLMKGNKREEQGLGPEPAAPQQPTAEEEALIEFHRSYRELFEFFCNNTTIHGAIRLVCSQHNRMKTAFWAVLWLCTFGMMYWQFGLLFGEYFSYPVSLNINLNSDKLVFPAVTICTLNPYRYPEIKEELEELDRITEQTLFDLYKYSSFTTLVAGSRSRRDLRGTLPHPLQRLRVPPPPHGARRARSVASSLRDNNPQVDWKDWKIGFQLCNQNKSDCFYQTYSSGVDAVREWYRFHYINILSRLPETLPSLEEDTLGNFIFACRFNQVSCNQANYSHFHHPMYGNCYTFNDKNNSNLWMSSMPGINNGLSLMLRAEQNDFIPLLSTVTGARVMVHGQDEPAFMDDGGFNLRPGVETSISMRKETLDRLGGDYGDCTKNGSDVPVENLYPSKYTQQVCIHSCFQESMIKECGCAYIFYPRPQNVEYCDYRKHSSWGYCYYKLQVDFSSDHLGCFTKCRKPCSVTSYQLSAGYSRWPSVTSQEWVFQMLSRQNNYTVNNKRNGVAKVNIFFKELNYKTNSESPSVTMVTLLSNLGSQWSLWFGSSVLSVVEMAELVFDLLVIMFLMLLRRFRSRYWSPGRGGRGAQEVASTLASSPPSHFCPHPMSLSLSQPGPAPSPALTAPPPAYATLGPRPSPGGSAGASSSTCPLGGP
# T1 sequence (P51168 1-640): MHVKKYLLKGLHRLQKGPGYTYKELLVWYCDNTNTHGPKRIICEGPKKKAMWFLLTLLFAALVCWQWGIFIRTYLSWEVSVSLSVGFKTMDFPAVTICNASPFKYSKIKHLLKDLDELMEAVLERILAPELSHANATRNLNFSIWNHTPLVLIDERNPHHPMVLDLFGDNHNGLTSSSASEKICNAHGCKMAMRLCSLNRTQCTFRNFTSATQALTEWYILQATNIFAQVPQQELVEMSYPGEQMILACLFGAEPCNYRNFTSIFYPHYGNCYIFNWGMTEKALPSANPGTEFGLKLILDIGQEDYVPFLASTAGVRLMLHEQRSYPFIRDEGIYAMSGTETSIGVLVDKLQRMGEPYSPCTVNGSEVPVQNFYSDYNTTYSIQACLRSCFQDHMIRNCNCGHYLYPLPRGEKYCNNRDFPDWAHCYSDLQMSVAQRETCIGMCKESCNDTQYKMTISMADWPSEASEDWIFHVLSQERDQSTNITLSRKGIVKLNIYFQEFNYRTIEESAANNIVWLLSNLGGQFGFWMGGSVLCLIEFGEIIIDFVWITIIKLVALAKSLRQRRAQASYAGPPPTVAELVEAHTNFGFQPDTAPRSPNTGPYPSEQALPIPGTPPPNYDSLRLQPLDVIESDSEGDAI
# T1 sequence (P51170 1-649): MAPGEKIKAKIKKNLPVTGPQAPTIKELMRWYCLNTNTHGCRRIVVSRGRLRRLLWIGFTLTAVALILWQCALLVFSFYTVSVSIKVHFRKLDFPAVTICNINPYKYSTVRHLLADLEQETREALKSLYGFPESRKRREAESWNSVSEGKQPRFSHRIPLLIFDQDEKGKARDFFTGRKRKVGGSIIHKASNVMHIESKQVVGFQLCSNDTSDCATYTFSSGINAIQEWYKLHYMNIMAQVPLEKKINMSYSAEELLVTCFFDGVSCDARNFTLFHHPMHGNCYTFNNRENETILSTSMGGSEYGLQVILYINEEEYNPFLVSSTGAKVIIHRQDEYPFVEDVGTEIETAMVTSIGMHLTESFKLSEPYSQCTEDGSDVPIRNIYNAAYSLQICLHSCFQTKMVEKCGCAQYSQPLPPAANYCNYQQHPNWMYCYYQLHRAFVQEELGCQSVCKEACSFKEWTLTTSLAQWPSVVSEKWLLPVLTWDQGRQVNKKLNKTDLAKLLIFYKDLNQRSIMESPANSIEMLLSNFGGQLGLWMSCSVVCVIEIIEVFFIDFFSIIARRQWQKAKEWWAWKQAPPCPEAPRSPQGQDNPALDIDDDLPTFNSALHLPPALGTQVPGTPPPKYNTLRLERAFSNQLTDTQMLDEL
# Assay: Short circuit current assay to determine ENaC blocker potency in human bronchial epithelial cells
# Assay type: cell-based
# Conditions: 50% inhibition of total amiloride-sensitive ISC, HBECs, apical addition; read-out: Averages. ENaC Ic50 μm Avg
# Description: Example 27—Short Circuit Current Assay to Determine ENaC Blocker Potency in Human Bronchial Epithelial Cells
# Human bronchial epithelial cells (HBECs) (Lonza, UK) were cultured using a modification of the method described by Coote et al, (2008). Cells were seeded into plastic T-75 flasks and grown in Bronchial Epithelial Cell Growth Medium (BEGM) (Lonza, UK) supplemented with bovine pituitary extract (52 ng/mL), hydrocortisone (0.5 μg/mL), human recombinant Epidermal Growth Factor (0.5 ng/mL), epinephrine (0.5 ng/mL), transferrin (10 ng/mL), insulin (5 ng/mL), retinoic acid (0.1 ng/mL), triiodothyronine (6.5 ng/mL), gentamycin (50 μg/mL) and amphotericin-B (50 ng/mL). Medium was changed every 48 hours until cells were 90% confluent. Cells were then passaged and seeded (8.25×10^5 cells/insert) onto polycarbonate Snapwell™ inserts (Costar, UK) in differentiation media containing 50% DMEM in BGEM with the same supplements as above but without triiodothyronine and a final retinoic acid concentration of 50 nM (all-trans retinoic acid; Sigma-Aldrich, UK). Cells were maintained submerged for the first 7 days in culture after which time they were exposed to an apical air interface for the remainder of the culture period. From the first day of establishment of an ALI, HBEC were fed with a DMEM:HAMS F-12 (1:1) media containing 2% Ultroser G (Pall BioSepra, France) with gentamycin (50 μg/mL) and amphotericin B (50 ng/mL). Cells were used for short-circuit current assay between days 14-21 after the establishment of the ALI. At all stages of culture, cells were maintained at 37′C in 5% CO2 in an air incubator.
# Short-Circuit Current (ISC) Measurements
# Snapwell inserts were mounted in Costar Vertical Diffusion Chambers (Costar, UK) and were bathed with continuously gassed Ringer solution (5% CO2 in O2; pH 7.4) maintained at 37° C. containing (in mM): 120 NaCl, 25 NaHCO3, 3.3 KH2PO4, 0.8 K2HPO4, 1.2 CaCl2, 1.2 MgCl2 and 10 glucose. The solution osmolarity was always between 280-300 mOsm/kg H2O for all physiological salt solutions used. Cells were voltage clamped to 0 mV (model EVC4000, WPI). Transepithelial resistance (RT) was measured by applying a 2 mV pulse at 30 s intervals and calculating RT by Ohm's law. Data were recorded using a PowerLab workstation (ADInstruments, UK).
# ENaC blocker compounds were added to the apical chamber from a 1000-fold stock solution (prepared in DMSO) to achieve a cumulative concentration response in terms of the inhibition of the basal ISC. At the completion of the concentration response, a supra-maximal concentration of amiloride (10 μM) was added. The concentration of test compound that induced a 50% inhibition of the total amiloride-sensitive ISC (IC50) was calculated using GraphPad Prism v6.05.
row,SMILES,IC50 [nM]
1,"CCn1c(CNC(=O)c2nc(Br)cnc2N)[n+](CC)c2ccc(OC)cc21.O=C[O-] [Example 2, 2-{[(3-amino-6-bromopyrazin-2-yl)formamido]methyl}-1,3-diethyl-6-methoxy-1H-1,3-benzodiazol-3-ium formate]",1
2,"CCn1c(CNC(=O)c2nc(Br)cnc2N)[n+](CCO)c2ccc(OC)cc21.O=C[O-] [Example 3, 2-{[(3-amino-6-bromopyrazin-2-yl)formamido]methyl}-1-ethyl-3-(2-hydroxyethyl)-6-methoxy-1H-1,3-benzodiazol-3-ium formate]",1
3,"CCn1c(CNC(=O)c2nc(Br)cnc2N)[n+](CCOCCOCCO)c2ccc(OC)cc21.O=C[O-] [Example 4, 2-{[(3-amino-6-bromopyrazin-2-yl)formamido]methyl}-1-ethyl-3-{2-[2-(2-hydroxyethoxy)ethoxy]ethyl}-6-methoxy-1H-1,3-benzodiazol-3-ium formate]",4
4,"CCn1c(CNC(=O)c2nc(Cl)cnc2N)[n+](C)c2ccc(OC)cc21.[I-] [Example 5, 2-{[(3-amino-6-chloropyrazin-2-yl)formamido]methyl}-1-ethyl-6-methoxy-3-methyl-1H-1,3-benzodiazol-3-ium iodide]",2
5,"CCn1c(CNC(=O)c2nc(C)cnc2N)[n+](C)c2ccc(OC)cc21.[I-] [Example 7, 2-{[(3-amino-6-methylpyrazin-2-yl)formamido]methyl}-1-ethyl-6-methoxy-3-methyl-1H-1,3-benzodiazol-3-ium iodide]",4
6,"CCc1cnc(N)c(C(=O)NCc2n(CC)c3cc(OC)ccc3[n+]2C)n1.[I-] [Example 8, 2-{[(3-amino-6-ethylpyrazin-2-yl)formamido]methyl}-1-ethyl-6-methoxy-3-methyl-1H-1,3-benzodiazol-3-ium iodide]",224
7,"CCn1c(CNC(=O)c2nc(SC)cnc2N)[n+](C)c2ccc(OC)cc21.[I-] [Example 9, 2-({[3-amino-6-(methylsulfanyl)pyrazin-2-yl]formamido}methyl)-1-ethyl-6-methoxy-3-methyl-1H-1,3-benzodiazol-3-ium iodide]",74
8,"CCn1c(CNC(=O)c2nc(Br)cnc2N)[n+](C)c2ccc(Cl)cc21.O=CO.O=C[O-] [Example 11, 2-{[(3-amino-6-bromopyrazin-2-yl)formamido]methyl}-6-chloro-1-ethyl-3-methyl-1H-1,3-benzodiazol-3-ium formic acid formate]",2
9,"CCn1c(CNC(=O)c2nc(Br)cnc2N)[n+](C)c2ccc(F)cc21.O=C[O-] [Example 12, 2-{[(3-amino-6-bromopyrazin-2-yl)formamido]methyl}-1-ethyl-6-fluoro-3-methyl-1H-1,3-benzodiazol-3-ium formate]",19
10,"CCn1c(CNC(=O)c2nc(Br)cnc2N)[n+](C)c2ccc(C(F)(F)F)cc21.[I-] [Example 13, 2-{[(3-amino-6-bromopyrazin-2-yl)formamido]methyl}-1-ethyl-3-methyl-6-(trifluoromethyl)-1H-1,3-benzodiazol-3-ium iodide]",4
11,"CCn1c(CNC(=O)c2nc(Br)cnc2N)[n+](C)c2ccc(OC(F)(F)F)cc21.O=C[O-] [Example 14, 2-{[(3-amino-6-bromopyrazin-2-yl)formamido]methyl}-1-ethyl-3-methyl-6-(trifluoromethoxy)-1H-1,3-benzodiazol-3-ium formate]",3
12,"CCn1c(CNC(=O)c2nc(Br)cnc2N)[n+](CC)c2ccc(C(=O)OC)cc21.[I-] [Example 15, 2-{[(3-amino-6-bromopyrazin-2-yl)formamido]methyl}-1,3-diethyl-6-(methoxycarbonyl)-1H-1,3-benzodiazol-3-ium iodide]",2
13,"CCn1c(CNC(=O)c2nc(Br)cnc2N)[n+](CC)c2ccc(C(=O)N[C@@H]3CCOC3=O)cc21 [Example 17, 2-{[(3-amino-6-bromopyrazin-2-yl)formamido]methyl}-1,3-diethyl-6-{[(3R)-2-oxooxolan-3-yl]carbamoyl}-1H-1,3-benzodiazol-3-ium formate]",3
14,"CCn1c(CNC(=O)c2nc(Br)cnc2N)[n+](CC)c2ccc(C(=O)N[C@H]3CCOC3=O)cc21 [Example 18, 2-{[(3-amino-6-bromopyrazin-2-yl)formamido]methyl}-1,3-diethyl-6-{[(3S)-2-oxooxolan-3-yl]carbamoyl}-1H-1,3-benzodiazol-3-ium formate]",4
15,"CCn1c(CNC(=O)c2nc(Br)cnc2N)[n+](Cc2ccccc2)c2ccc(C(F)(F)F)cc21.O=C[O-] [Example 19, 2-{[(3-Amino-6-bromopyrazin-2-yl)formamido]methyl}-3-benzyl-1-ethyl-6-(trifluoromethyl)-1H-1,3-benzodiazol-3-ium formate]",4
16,"CCn1c(CNC(=O)c2nc(Br)cnc2N)[n+](CC)c2ccc(-c3cnn(C4CCN(C(=O)OC(C)(C)C)CC4)c3)cc21.[I-] [Example 20, 2-{[(3-amino-6-bromopyrazin-2-yl)formamido]methyl}-6-(1-{1-[(tert-butoxy)carbonyl]piperidin-4-yl}-1H-pyrazol-4-yl)-1,3-diethyl-1H-1,3-benzodiazol-3-ium iodide]",1
